Measurements taken from ChEMBL document CHEMBL1124100, “Structure-activity profile of a series of novel triazoloquinazoline adenosine antagonists” (J Med Chem, 1988).

How the values were obtained:
[1] = biological target: Adenosine A2 receptor (Rattus norvegicus, UniProt P29276+P30543)
Description: Inhibition of binding to Adenosine-2 receptor using [3H]NECA in rat striatum

[2] = species: Cavia porcellus; assay: Inhibition of 2-chloroadenosine-induced relaxation in histamine-contracted guinea pig trachea; assay type: functional, organism-based
[3] = biological target: T1, Adenosine receptor A1 (Rattus norvegicus, UniProt P25099); assay: Inhibition of binding towards adenosine A1 receptor using [3H]N-cyclohexyladenosine ([3H]CHA) in rat whole brain membranes.; assay type: cell membranes
T1 sequence (P25099 whole entry): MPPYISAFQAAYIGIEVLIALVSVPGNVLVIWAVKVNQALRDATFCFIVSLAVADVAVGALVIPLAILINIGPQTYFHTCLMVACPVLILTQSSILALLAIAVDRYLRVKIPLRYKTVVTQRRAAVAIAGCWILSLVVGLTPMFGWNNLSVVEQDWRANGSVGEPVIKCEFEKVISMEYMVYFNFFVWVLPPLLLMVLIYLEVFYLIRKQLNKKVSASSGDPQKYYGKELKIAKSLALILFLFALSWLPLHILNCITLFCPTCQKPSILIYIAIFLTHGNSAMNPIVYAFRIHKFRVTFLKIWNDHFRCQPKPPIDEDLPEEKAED

[4] = species: Cavia porcellus; assay: In vitro inhibition of adenylate cyclase activity of synaptoneurosomes from guinea pig cerebral cortex; assay type: functional
[5] = biological target: T2, Adenosine receptor A1 (Rattus norvegicus) (UniProt P25099); assay: (§1) Ratio of Ki at A2 to Ki at A1 receptors
T2 sequence (whole entry): T1 sequence (P25099 whole entry)

[6] = as §1

SMILES	IC50 [1]	IC50 [2]	IC50 [3]	Ratio [5]	IC50 [4]	Ratio [6]
CS(=O)(=O)O.Nc1nc2ccc(Cl)cc2c2nc(-c3ccco3)nn12	3.3 nM	3 nM	–	–	–	–
Nc1nc2ccc(Cl)cc2c2nc(C3CCCO3)nn12 (stereo unspecified)	1580 nM	> 1000 nM	827 nM	1.9	480 nM	–
CS(=O)(=O)O.Cn1c(=N)n2nc(-c3ccco3)nc2c2ccccc21	2914 nM	> 1000 nM	1220 nM	2.4	1480 nM	–
CS(=O)(=O)O.Nc1nc2ccc(Cl)cc2c2nc(-c3ccoc3)nn12	145 nM	> 1000 nM	295 nM	–	79 nM	0.49
CCC(C)Nc1nc2ccc(Cl)cc2c2nc(-c3ccco3)nn12.CS(=O)(=O)O (stereo unspecified)	158 nM	> 1000 nM	61 nM	2.6	–	–
CS(=O)(=O)O.Nc1nc2ccc(Cl)cc2c2nc(-c3cccs3)nn12	116 nM	> 1000 nM	324 nM	0.36	200 nM	–
Nc1nc2ccc(Cl)cc2c2nc(-c3ccc(Br)o3)nn12	531 nM	> 1000 nM	1570 nM	0.34	–	–
Cn1c(=O)c2nc[nH]c2n(C)c1=O [THEOPHYLLINE]	–	3000 nM	–	–	10000 nM	–
CS(=O)(=O)O.Nc1nc2ccc(Cl)cc2c2nc(-c3ccc[nH]3)nn12	1205 nM	> 1000 nM	610 nM	2	–	–

The next lines start with results.

IC50 [1]	IC50 [2]	IC50 [3]	Ratio [5]	SMILES	IC50 [4]	Ratio [6]
27 nM	100 nM	38 nM	0.71	Nc1nc2ccccc2c2nc(-c3ccco3)nn12	40 nM	–
19 nM	> 10000 nM	31 nM	0.61	COc1ccc2nc(N)n3nc(-c4ccco4)nc3c2c1	–	–
1290 nM	> 10000 nM	145 nM	8.9	Nc1nc2ccc(OCc3ccccc3)cc2c2nc(-c3ccco3)nn12	–	–
> 10000 nM	> 1000 nM	10000 nM	–	Oc1nc2ccc(Cl)cc2c2nc(-c3ccco3)nn12	–	–
5.5 nM	1000 nM	9.5 nM	0.58	Nc1nc2ccc(O)cc2c2nc(-c3ccco3)nn12	–	–
> 10000 nM	> 1000 nM	> 10000 nM	–	CN(C)c1nc2ccc(Cl)cc2c2nc(-c3ccco3)nn12	> 1000 nM	–
56 nM	> 1000 nM	21 nM	2.7	OCCNc1nc2ccc(Cl)cc2c2nc(-c3ccco3)nn12	–	–
179 nM	> 1000 nM	22 nM	8.2	CC(C)Nc1nc2ccc(Cl)cc2c2nc(-c3ccco3)nn12	400 nM	–
61 nM	> 1000 nM	89 nM	0.69	CNc1nc2ccc(Cl)cc2c2nc(-c3ccco3)nn12	–	–
> 10000 nM	> 1000 nM	> 10000 nM	–	CC(C)(C)Nc1nc2ccc(Cl)cc2c2nc(-c3ccco3)nn12	–	–
